The target of test [1] is T1, ΔF508-CFTR (Homo sapiens, UniProt P13569, DEL508-508).
T1 construct: host or cells: CFBE41o-, doxycycline-inducible
The experiment in a line: CFTR cell surface levels using HRP-tagged ΔF508-CFTR expressing CFBE cells, in the presence of a co-corrector. In kind it is cell-based. The conditions noted are these: HRP-tagged ΔF508-CFTR CFBE cells, in the presence of 3 μM co-corrector; for EC50: read-out: EC50. In short, it runs like this: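 Chemiluminescent read-out of surface HRP (15 min, dark) after PBS washes. Activity is normalized as 100×(sample−DMSO)/(3 μM co-corrector alone−DMSO).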

Test [2] has as its target T1, ΔF508-CFTR. The experiment in a line: CFTR cell surface levels using HRP-tagged ΔF508-CFTR expressing CFBE cells, intrinsic corrector capacity. In kind it is cell-based. Set-up: % Activation: concentration or dose not given beside the values. The conditions noted are these: HRP-tagged ΔF508-CFTR expressing CFBE41o- cells, compound alone (intrinsic corrector capacity), 20 hours at 33° C.; for EC50: read-out: EC50. In short, it runs like this:
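Read-out: chemiluminescent HRP activity of ECL4-HRP-tagged ΔF508-CFTR at the cell surface, 15 min substrate in dark. Normalized as 100×(sample−DMSO)/(positive control−DMSO).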

T1 sequence (P13569 with tags, fused parts or gaps DEL508-508): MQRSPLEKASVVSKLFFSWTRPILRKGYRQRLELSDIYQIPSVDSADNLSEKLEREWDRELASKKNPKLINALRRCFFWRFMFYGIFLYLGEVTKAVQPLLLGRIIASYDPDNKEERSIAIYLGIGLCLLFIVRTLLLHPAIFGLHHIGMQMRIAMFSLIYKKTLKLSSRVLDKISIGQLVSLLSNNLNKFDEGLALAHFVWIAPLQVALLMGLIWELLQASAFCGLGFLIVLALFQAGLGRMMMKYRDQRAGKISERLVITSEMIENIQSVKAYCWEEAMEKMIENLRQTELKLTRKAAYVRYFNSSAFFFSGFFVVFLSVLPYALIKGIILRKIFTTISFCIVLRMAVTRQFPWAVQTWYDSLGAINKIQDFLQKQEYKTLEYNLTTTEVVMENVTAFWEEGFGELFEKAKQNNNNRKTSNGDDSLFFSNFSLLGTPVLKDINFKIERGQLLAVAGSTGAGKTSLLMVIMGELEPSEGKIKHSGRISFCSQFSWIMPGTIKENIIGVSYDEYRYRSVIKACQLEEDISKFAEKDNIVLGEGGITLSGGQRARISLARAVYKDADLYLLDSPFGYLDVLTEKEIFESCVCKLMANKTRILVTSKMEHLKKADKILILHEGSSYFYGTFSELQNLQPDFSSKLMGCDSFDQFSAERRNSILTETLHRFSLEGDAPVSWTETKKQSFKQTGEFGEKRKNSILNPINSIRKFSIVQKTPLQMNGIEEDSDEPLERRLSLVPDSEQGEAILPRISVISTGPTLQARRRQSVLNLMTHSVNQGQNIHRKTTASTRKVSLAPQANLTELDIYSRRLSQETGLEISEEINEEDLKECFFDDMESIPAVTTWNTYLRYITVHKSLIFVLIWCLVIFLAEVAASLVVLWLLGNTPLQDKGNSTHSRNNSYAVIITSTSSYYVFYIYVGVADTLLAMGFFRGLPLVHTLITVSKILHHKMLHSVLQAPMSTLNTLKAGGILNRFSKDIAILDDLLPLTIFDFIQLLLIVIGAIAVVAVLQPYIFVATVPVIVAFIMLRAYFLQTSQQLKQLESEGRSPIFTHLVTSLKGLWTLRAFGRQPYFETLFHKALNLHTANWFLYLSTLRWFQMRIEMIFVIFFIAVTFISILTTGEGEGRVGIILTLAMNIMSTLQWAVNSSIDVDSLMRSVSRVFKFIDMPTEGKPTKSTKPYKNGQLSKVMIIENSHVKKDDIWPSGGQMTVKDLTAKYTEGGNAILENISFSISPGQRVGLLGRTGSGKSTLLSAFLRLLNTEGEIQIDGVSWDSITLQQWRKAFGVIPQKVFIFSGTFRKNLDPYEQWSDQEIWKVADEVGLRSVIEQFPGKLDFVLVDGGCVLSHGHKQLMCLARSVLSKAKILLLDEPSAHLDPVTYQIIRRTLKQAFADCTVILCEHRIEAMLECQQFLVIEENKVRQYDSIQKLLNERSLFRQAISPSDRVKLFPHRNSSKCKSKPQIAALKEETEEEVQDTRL

Regarding `CS(=O)(=O)NC(=O)c1cc(N2CCC(N3CCOCC3)CC2)c2c(C3CCC3)nn(-c3ccnc(C4CCOCC4)c3)c2n1` [Compound 490, 3-cyclobutyl-N-(methanesulfonyl)-4-[4-(morpholin-4-yl)piperidin-1-yl]-1-[2-(oxan-4-yl)pyridin-4-yl]-1H-pyrazolo[3,4-b]pyridine-6-carboxamide], on ΔF508-CFTR [1], the “% Activation” value was determined as 303.9% and the 50% effective concentration (EC50) worked out at 693 nM. Also, at ΔF508-CFTR [2], the “% Activation” value worked out at 139.7% and the EC50 was determined as 1550 nM.

For the molecule `O=C(NS(=O)(=O)CCO)c1cc(N2CCC(CCN3CCOCC3)CC2)c2c(C3CCC3)nn(-c3ccc(F)cc3)c2n1` [Compound 491, 3-cyclobutyl-1-(4-fluorophenyl)-N-(2-hydroxyethanesulfonyl)-4-{4-[2-(morpholin-4-yl)ethyl]piperidin-1-yl}-1H-pyrazolo[3,4-b]pyridine-6-carboxamide], on ΔF508-CFTR [1], the “% Activation” value is listed as 490.9% and the concentration for a half-maximal effect (EC50) is 488 nM. Further, on ΔF508-CFTR [2], the “% Activation” value stood at 204.5% and the EC50 was found to be 248 nM.

Regarding `COC(=O)N1CCN(C2CCN(c3cc(C(=O)NS(=O)(=O)N(C)C)nc4c3c(C3CCC3)nn4-c3ccc(F)cc3)CC2)CC1` [Compound 492, methyl 4-(1-{3-cyclobutyl-6-[(dimethylsulfamoyl)carbamoyl]-1-(4-fluorophenyl)-1H-pyrazolo[3,4-b]pyridin-4-yl}piperidin-4-yl)piperazine-1-carboxylate], the “% Activation” value is on record as 483.4% on ΔF508-CFTR [1] and 311% on ΔF508-CFTR [2]. Further, the EC50 on ΔF508-CFTR [1] is 43.9 nM; on ΔF508-CFTR [2], 79.9 nM.

With `CCS(=O)(=O)NC(=O)c1cc(N2CCC(CN3CCOCC3)CC2)c2c(C3CCC3)nn(-c3ccc(F)cc3)c2n1` [Compound 494, 3-cyclobutyl-N-(ethanesulfonyl)-1-(4-fluorophenyl)-4-{4-[(morpholin-4-yl)methyl]piperidin-1-yl}-1H-pyrazolo[3,4-b]pyridine-6-carboxamide], at ΔF508-CFTR [1], the “% Activation” value was 551.8% and the concentration for a half-maximal effect (EC50) stood at 37.1 nM. Besides, on ΔF508-CFTR [2], the “% Activation” value was 315.4% and the EC50 is 110 nM.

On to `CCOC(=O)N1CCC(c2cc(C(=O)NS(C)(=O)=O)nc3c2c(C(C)C)nn3-c2ccc(F)cc2)CC1` [Compound 496, ethyl 4-[1-(4-fluorophenyl)-6-[(methanesulfonyl)carbamoyl]-3-(propan-2-yl)-1H-pyrazolo[3,4-b]pyridin-4-yl]piperidine-1-carboxylate], for which, at ΔF508-CFTR [1], the “% Activation” value was found to be 374.65% and the EC50 is 243 nM. At ΔF508-CFTR [2], the “% Activation” value is given as 199.9% and the EC50 was determined as 282 nM.

For `CCOC(=O)N1CCC(c2cc(C(=O)NS(=O)(=O)N(C)C)nc3c2c(C(C)C)nn3-c2ccc(F)cc2)CC1` [Compound 497, ethyl 4-{6-[(dimethylsulfamoyl)carbamoyl]-1-(4-fluorophenyl)-3-(propan-2-yl)-1H-pyrazolo[3,4-b]pyridin-4-yl}piperidine-1-carboxylate], on ΔF508-CFTR [1], the “% Activation” value turned out to be 378.25% and the EC50 came out at 288 nM. Besides, at ΔF508-CFTR [2], the “% Activation” value turned out to be 195.7% and the EC50 is 410 nM.

Consider `Cc1cccc(-n2nc(C3CCC3)c3c(N4CCC(N5CCOCC5)CC4)cc(C(=O)NS(=O)(=O)N(C)C)nc32)c1` [Compound 498, 3-cyclobutyl-N-(dimethylsulfamoyl)-1-(3-methylphenyl)-4-[4-(morpholin-4-yl)piperidin-1-yl]-1H-pyrazolo[3,4-b]pyridine-6-carboxamide], for which the “% Activation” value is 456.3% on ΔF508-CFTR [1] and 288.1% at ΔF508-CFTR [2]. Further, the EC50 on ΔF508-CFTR [1] turned out to be 95.1 nM; on ΔF508-CFTR [2], 144 nM.

Consider `COc1cccc(-n2nc(C3CCC3)c3c(N4CCC(N5CCOCC5)CC4)cc(C(=O)NS(=O)(=O)N(C)C)nc32)c1` [Compound 499, 3-cyclobutyl-N-(dimethylsulfamoyl)-1-(3-methoxyphenyl)-4-[4-(morpholin-4-yl)piperidin-1-yl]-1H-pyrazolo[3,4-b]pyridine-6-carboxamide], for which, on ΔF508-CFTR [1], the “% Activation” value stood at 439.6% and the EC50 is 71.2 nM. Further, at ΔF508-CFTR [2], the “% Activation” value is on record as 287.5% and the 50% effective concentration (EC50) turned out to be 186 nM.

Turning to `CN(C)S(=O)(=O)NC(=O)c1cc(N2CCC(N3CCOCC3)CC2)c2c(C3CCC3)nn(-c3ccc(C(F)(F)F)cc3)c2n1` [Compound 500, 3-cyclobutyl-N-(dimethylsulfamoyl)-4-[4-(morpholin-4-yl)piperidin-1-yl]-1-[4-(trifluoromethyl)phenyl]-1H-pyrazolo[3,4-b]pyridine-6-carboxamide], on ΔF508-CFTR [1], the “% Activation” value is 330.05% and the EC50 was found to be 84.2 nM. Moreover, on ΔF508-CFTR [2], the “% Activation” value is 137.5% and the half-maximal effective concentration (EC50) worked out at 173 nM.

`CCOCC1(F)CCN(c2cc(C(=O)NS(C)(=O)=O)nc3c2c(C2CCC2)nn3-c2ccccc2)CC1` [Compound 501, 3-cyclobutyl-4-[4-(ethoxymethyl)-4-fluoropiperidin-1-yl]-N-(methanesulfonyl)-1-phenyl-1H-pyrazolo[3,4-b]pyridine-6-carboxamide]: on ΔF508-CFTR [1], the “% Activation” value is recorded as 403.55% and the concentration for a half-maximal effect (EC50) was 124 nM. In addition, at ΔF508-CFTR [2], the “% Activation” value was 188.7% and the EC50 was determined as 211 nM.

On to `COCCOCC1(F)CCN(c2cc(C(=O)NS(C)(=O)=O)nc3c2c(C2CCC2)nn3-c2ccccc2)CC1` [Compound 502, 3-cyclobutyl-4-{4-fluoro-4-[(2-methoxyethoxy)methyl]piperidin-1-yl}-N-(methanesulfonyl)-1-phenyl-1H-pyrazolo[3,4-b]pyridine-6-carboxamide], for which the “% Activation” value is given as 383.8% on ΔF508-CFTR [1] and 214.2% at ΔF508-CFTR [2]. Besides, the half-maximal effective concentration (EC50) was 177 nM on ΔF508-CFTR [1] and 345 nM at ΔF508-CFTR [2].

For the molecule `COCCOCC1(F)CCCN(c2cc(C(=O)NS(C)(=O)=O)nc3c2c(C2CCC2)nn3-c2ccccc2)C1` (centres unmarked) [Compound 503, 3-cyclobutyl-4-{3-fluoro-3-[(2-methoxyethoxy)methyl]piperidin-1-yl}-N-(methanesulfonyl)-1-phenyl-1H-pyrazolo[3,4-b]pyridine-6-carboxamide], the “% Activation” value on ΔF508-CFTR [1] amounted to 433.2%; at ΔF508-CFTR [2] it was 203.4%. Moreover, the EC50 at ΔF508-CFTR [1] is 405 nM; at ΔF508-CFTR [2], 419 nM.

For `COCC1(F)CCN(c2cc(C(=O)NS(C)(=O)=O)nc3c2c(C2CCC2)nn3-c2ccccc2)CC1` [Compound 504, 3-cyclobutyl-4-[4-fluoro-4-(methoxymethyl)piperidin-1-yl]-N-(methanesulfonyl)-1-phenyl-1H-pyrazolo[3,4-b]pyridine-6-carboxamide], at ΔF508-CFTR [1], the “% Activation” value is given as 404.8% and the 50% effective concentration (EC50) amounted to 210 nM. For the same molecule, on ΔF508-CFTR [2], the “% Activation” value came out at 206.4% and the half-maximal effective concentration (EC50) amounted to 301 nM.

Consider `N#CC1CCN(S(=O)(=O)NC(=O)c2cc(N3CCC(N4CCOCC4)CC3)c3c(C4CCC4)nn(-c4ccc(F)cc4)c3n2)CC1` [Compound 505, N-(4-cyanopiperidine-1-sulfonyl)-3-cyclobutyl-1-(4-fluorophenyl)-4-[4-(morpholin-4-yl)piperidin-1-yl]-1H-pyrazolo[3,4-b]pyridine-6-carboxamide], for which, at ΔF508-CFTR [1], the “% Activation” value came out at 389% and the EC50 was 54.1 nM. Moreover, at ΔF508-CFTR [2], the “% Activation” value is reported as 187.5% and the EC50 was 92.6 nM.

For the origin of these results see patent US10259810B2, “N-sulfonylated pyrazolo[3,4-b]pyridin-6-carboxamides and method of use” (AbbVie S.à.r.l., priority 2015, dated 2019).
